Experiments:
Type in all cases: in vivo
[1] = tested on: ragweed (common ragweed, Ambrosia elatior); test: Test A postemergence, visual plant response rating; conditions: for Ragweed plant response rating (0 to 100 scale): 500 g ai/ha, postemergence, 0 is no effect, 100 is complete control; for Ragweed plant response rating: Postemergence, 125 g ai/ha, 0 to 100 scale (0 no effect, 100 complete control)
Procedure, shortened: (§1)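 Preemergence: seeds in loam/sand blend given directed soil spray of compound in non-phytotoxic solvent with surfactant. Postemergence: plants 2–10 cm, one- to two-leaf stage, sprayed with same formulation. Visual injury rated vs untreated controls after ~10 days in greenhouse, 0 (no effect) to 100 (complete control).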

corn (Zea mays) = test: Test A postemergence, visual plant response rating; conditions: for Corn plant response rating (0 to 100 scale): 500 g ai/ha, postemergence, 0 is no effect, 100 is complete control; for Corn plant response rating: Postemergence, 125 g ai/ha, 0 to 100 scale (0 no effect, 100 complete control)
Procedure, shortened: as §1

kochia (Kochia scoparia) [2] = test: Test A postemergence, visual plant response rating; conditions: for Kochia plant response rating (0 to 100 scale): 500 g ai/ha, postemergence, 0 is no effect, 100 is complete control; for Kochia plant response rating: Postemergence, 125 g ai/ha, 0 to 100 scale (0 no effect, 100 complete control)
Procedure, shortened: as §1

[3] = tested on: wheat (Triticum aestivum); test: Test A postemergence, visual plant response rating; conditions: for Wheat plant response rating (0 to 100 scale): 500 g ai/ha, postemergence, 0 is no effect, 100 is complete control; for Wheat plant response rating: Postemergence, 125 g ai/ha, 0 to 100 scale (0 no effect, 100 complete control)
Procedure, shortened: as §1

[4] = tested on: pigweed (Amaranthus retroflexus); test: Test A postemergence, visual plant response rating; conditions: for Pigweed plant response rating (0 to 100 scale): 500 g ai/ha, postemergence, 0 is no effect, 100 is complete control; for Pigweed plant response rating: Postemergence, 125 g ai/ha, 0 to 100 scale (0 no effect, 100 complete control)
Procedure, shortened: as §1

[5] = tested on: blackgrass (Alopecurus myosuroides); test: Test A postemergence, visual plant response rating; conditions: for Blackgrass plant response rating (0 to 100 scale): 500 g ai/ha, postemergence, 0 is no effect, 100 is complete control; for Blackgrass plant response rating: Postemergence, 125 g ai/ha, 0 to 100 scale (0 no effect, 100 complete control)
Procedure, shortened: as §1

[6] = tested on: Italian ryegrass (Lolium multiflorum); test: Test A postemergence, visual plant response rating; conditions: for Ryegrass, Italian plant response rating (0 to 100 scale): 500 g ai/ha, postemergence, 0 is no effect, 100 is complete control; for Ryegrass, Italian plant response rating: Postemergence, 125 g ai/ha, 0 to 100 scale (0 no effect, 100 complete control)
Procedure, shortened: as §1

[7] = tested on: foxtail, green (green foxtail, Setaria viridis); test: Test A postemergence, visual plant response rating; conditions: for Foxtail, Green plant response rating (0 to 100 scale): 500 g ai/ha, postemergence, 0 is no effect, 100 is complete control; for Foxtail, Green plant response rating: Postemergence, 125 g ai/ha, 0 to 100 scale (0 no effect, 100 complete control)
Procedure, shortened: as §1

[8] = tested on: galium (catchweed bedstraw, Galium aparine); test: Test A postemergence, visual plant response rating; conditions: for Galium plant response rating (0 to 100 scale): 500 g ai/ha, postemergence, 0 is no effect, 100 is complete control; for Galium plant response rating: Postemergence, 125 g ai/ha, 0 to 100 scale (0 no effect, 100 complete control)
Procedure, shortened: as §1

[9] = tested on: barnyardgrass (Echinochloa crus-galli); test: Test A postemergence, visual plant response rating; conditions: for Barnyardgrass plant response rating (0 to 100 scale): 500 g ai/ha, postemergence, 0 is no effect, 100 is complete control; for Barnyardgrass plant response rating: Postemergence, 125 g ai/ha, 0 to 100 scale (0 no effect, 100 complete control)
Procedure, shortened: as §1

rice (Oryza sativa) = test: Test B flooded paddy test, visual plant response rating; conditions: 250 g ai/ha, Flood, applied to paddy water, 2-leaf stage, evaluated after 13 to 15 days
Procedure, shortened: (§2)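 Compounds added straight into paddy water of pots flooded to 3 cm, with 2-leaf-stage plants of the four species; water level held throughout.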

[10] = tested on: ducksalad (Heteranhera limosa); test: as above; conditions: 250 g ai/ha, Flood, applied to paddy water, 2-leaf stage, evaluated after 13 to 15 days
Procedure, shortened: as §2

[11] = tested on: barnyardgrass (Echinochloa crus-galli); test: as above; conditions: 250 g ai/ha, Flood, applied to paddy water, 2-leaf stage, evaluated after 13 to 15 days
Procedure, shortened: as §2

[12] = tested on: sedge, umbrella (small-flower umbrella sedge, Cyperus difformis); test: as above; conditions: 250 g ai/ha, Flood, applied to paddy water, 2-leaf stage, evaluated after 13 to 15 days
Procedure, shortened: as §2

[13] = tested on: ragweed (common ragweed, Ambrosia elatior); test: Test A preemergence, visual plant response rating; conditions: for Ragweed plant response rating (0 to 100 scale): approx. 10 days
Procedure, shortened: as §1

kochia (Kochia scoparia) [14] = test: Test A preemergence, visual plant response rating; conditions: for Kochia plant response rating (0 to 100 scale): approx. 10 days
Procedure, shortened: as §1

[15] = tested on: pigweed (Amaranthus retroflexus); test: Test A preemergence, visual plant response rating; conditions: for Pigweed plant response rating (0 to 100 scale): approx. 10 days
Procedure, shortened: as §1

[16] = tested on: Italian ryegrass (Lolium multiflorum); test: Test A preemergence, visual plant response rating; conditions: for Ryegrass, Italian plant response rating (0 to 100 scale): approx. 10 days
Procedure, shortened: as §1

[17] = tested on: foxtail, green (green foxtail, Setaria viridis); test: Test A preemergence, visual plant response rating; conditions: for Foxtail, Green plant response rating (0 to 100 scale): approx. 10 days
Procedure, shortened: as §1

[18] = tested on: barnyardgrass (Echinochloa crus-galli); test: Test A preemergence, visual plant response rating; conditions: for Barnyardgrass plant response rating (0 to 100 scale): approx. 10 days
Procedure, shortened: as §1

[19] = 125 g ai/ha, preemergence, 0 to 100 scale, 0 no effect, 100 complete control

SMILES | Ragweed plant response rating (0 to 100 scale) [1] | Ragweed plant response rating [1] | Corn plant response rating (0 to 100 scale) (corn (Zea mays)) | Corn plant response rating (corn (Zea mays)) | Kochia plant response rating (0 to 100 scale) (kochia (Kochia scoparia) [2]) | Kochia plant response rating (kochia (Kochia scoparia) [2]) | Wheat plant response rating (0 to 100 scale) [3] | Wheat plant response rating [3] | Pigweed plant response rating (0 to 100 scale) [4] | Pigweed plant response rating [4] | Blackgrass plant response rating (0 to 100 scale) [5] | Blackgrass plant response rating [5] | Ryegrass, Italian plant response rating (0 to 100 scale) [6] | Ryegrass, Italian plant response rating [6] | Foxtail, Green plant response rating (0 to 100 scale) [7] | Foxtail, Green plant response rating [7] | Galium plant response rating (0 to 100 scale) [8] | Galium plant response rating [8] | Barnyardgrass plant response rating (0 to 100 scale) [9] | Barnyardgrass plant response rating [9] | also measured
Cc1ccccc1/C(=N\OC(C)C)c1c(O)c(C)nn(C)c1=O [Compound 20] | 80 | 60 | 0 | 0 | 50 | 0 | 0 | 0 | 70 | 60 | 60 | 20 | 50 | 20 | 60 | 30 | 90 | 80 | 50 | 30 | Plant response rating, Rice (0 to 100 scale, 0 is no effect, 100 is complete control) (rice (Oryza sativa)): 0; Plant response rating, Ducksalad (0 to 100 scale, 0 is no effect, 100 is complete control) [10]: 0; Plant response rating, Barnyardgrass (0 to 100 scale, 0 is no effect, 100 is complete control) [11]: 0; Plant response rating, Sedge, Umbrella (0 to 100 scale, 0 is no effect, 100 is complete control) [12]: 0; Ragweed plant response rating (0 to 100 scale) ([13]; 125 g ai/ha Preemergence): 30; Ragweed plant response rating (0 to 100 scale) ([13]; 500 g ai/ha Preemergence): 90; Kochia plant response rating (0 to 100 scale) (kochia (Kochia scoparia) [14]; 125 g ai/ha Preemergence): 0; Kochia plant response rating (0 to 100 scale) (kochia (Kochia scoparia) [14]; 500 g ai/ha Preemergence): 0; Pigweed plant response rating (0 to 100 scale) ([15]; 125 g ai/ha Preemergence): 80; Pigweed plant response rating (0 to 100 scale) ([15]; 500 g ai/ha Preemergence): 100; Ryegrass, Italian plant response rating (0 to 100 scale) ([16]; 125 g ai/ha Preemergence): 30; Ryegrass, Italian plant response rating (0 to 100 scale) ([16]; 500 g ai/ha Preemergence): 70; Foxtail, Green plant response rating (0 to 100 scale) ([17]; 125 g ai/ha Preemergence): 0; Foxtail, Green plant response rating (0 to 100 scale) ([17]; 500 g ai/ha Preemergence): 60; Barnyardgrass plant response rating (0 to 100 scale) ([18]; 125 g ai/ha Preemergence): 20; Barnyardgrass plant response rating (0 to 100 scale) ([18]; 500 g ai/ha Preemergence): 70
CCO/N=C(\c1cccc(Cl)c1)c1c(O)c(C)nn(C)c1=O [Compound 8] | 80 | 20 | 0 | 0 | 70 | 10 | 0 | 0 | 20 | 0 | 20 | 0 | 60 | 30 | 20 | 10 | 90 | 80 | 10 | 0 | Plant response rating, Rice (0 to 100 scale, 0 is no effect, 100 is complete control) (rice (Oryza sativa)): 0; Plant response rating, Ducksalad (0 to 100 scale, 0 is no effect, 100 is complete control) [10]: 0; Plant response rating, Barnyardgrass (0 to 100 scale, 0 is no effect, 100 is complete control) [11]: 0; Plant response rating, Sedge, Umbrella (0 to 100 scale, 0 is no effect, 100 is complete control) [12]: 0; Ragweed plant response rating (0 to 100 scale) ([13]; 125 g ai/ha Preemergence): 0; Ragweed plant response rating (0 to 100 scale) ([13]; 500 g ai/ha Preemergence): 100; Kochia plant response rating (0 to 100 scale) (kochia (Kochia scoparia) [14]; 125 g ai/ha Preemergence): 10; Kochia plant response rating (0 to 100 scale) (kochia (Kochia scoparia) [14]; 500 g ai/ha Preemergence): 60; Pigweed plant response rating (0 to 100 scale) ([15]; 125 g ai/ha Preemergence): 30; Pigweed plant response rating (0 to 100 scale) ([15]; 500 g ai/ha Preemergence): 90; Ryegrass, Italian plant response rating (0 to 100 scale) ([16]; 125 g ai/ha Preemergence): 50; Ryegrass, Italian plant response rating (0 to 100 scale) ([16]; 500 g ai/ha Preemergence): 50; Foxtail, Green plant response rating (0 to 100 scale) ([17]; 125 g ai/ha Preemergence): 10; Foxtail, Green plant response rating (0 to 100 scale) ([17]; 500 g ai/ha Preemergence): 30; Barnyardgrass plant response rating (0 to 100 scale) ([18]; 125 g ai/ha Preemergence): 0; Barnyardgrass plant response rating (0 to 100 scale) ([18]; 500 g ai/ha Preemergence): 20
CON=C(c1cccc(C)c1)c1c(O)c(Cl)nn(C)c1=O [Compound 128] | 80 | 50 | 0 | 0 | 70 | 50 | 10 | 0 | 60 | 30 | 10 | 0 | 10 | 0 | 30 | 20 | 90 | 70 | 30 | 10 | Plant response rating, Rice (0 to 100 scale, 0 is no effect, 100 is complete control) (rice (Oryza sativa)): 30; Plant response rating, Ducksalad (0 to 100 scale, 0 is no effect, 100 is complete control) [10]: 40; Plant response rating, Barnyardgrass (0 to 100 scale, 0 is no effect, 100 is complete control) [11]: 0; Plant response rating, Sedge, Umbrella (0 to 100 scale, 0 is no effect, 100 is complete control) [12]: 0; Ragweed plant response rating [13, 19]: 60; Ragweed plant response rating (0 to 100 scale) ([13]; 500 g ai/ha Preemergence): 80; Kochia plant response rating (kochia (Kochia scoparia) [14]; [19]): 30; Kochia plant response rating (0 to 100 scale) (kochia (Kochia scoparia) [14]; 500 g ai/ha Preemergence): 80; Pigweed plant response rating [15, 19]: 100; Pigweed plant response rating (0 to 100 scale) ([15]; 500 g ai/ha Preemergence): 80; Ryegrass, Italian plant response rating [16, 19]: 0; Ryegrass, Italian plant response rating (0 to 100 scale) ([16]; 500 g ai/ha Preemergence): 20; Foxtail, Green plant response rating [17, 19]: 0; Foxtail, Green plant response rating (0 to 100 scale) ([17]; 500 g ai/ha Preemergence): 10; Barnyardgrass plant response rating [18, 19]: 0; Barnyardgrass plant response rating (0 to 100 scale) ([18]; 500 g ai/ha Preemergence): 30

From patent US20210045385A1, “PYRIDAZINONE-SUBSTITUTED KETOXIMES AS HERBICIDES” (FMC Corporation, priority 2018, published 2021)
